Source: patent publication US7425567B2, “Piperidine derivative compounds and drugs containing the compounds as the active ingredient” (Ono Pharmaceutical Co., Ltd., priority 2002, dated 2008)

Legend:
PDE4 = assay: In vitro enzyme assay, PDE4 inhibitory activity; assay type: biochemical; conditions: PDE4 enzyme solution from U937 cells (derived from human monocyte), 3H-cAMP substrate, room temperature, 30 minutes; read-out: IC50 (concentration of 50% inhibition of PDE4 activity)
Protocol: U937 cells (derived from human monocyte) were cultured in PRMI 1640 medium containing 10% bovine fetal serum. The U937 cells were harvested and homogenized in 50 mM Tris-HCl buffer [pH 7.5, containing PMSF (1 mM), leupeptin (1 μg/ml) and pepstatin A (1 μg/ml)]. After centrifugation (at 15,000 rpm for 10 minutes), the supernatant was recovered and filtered through a 0.45 μm filter. The sample was applied to MonoQ (manufactured by Pharmacia, strong anion exchange resin) column and eluted by a density gradient of 0 to 0.8 M NaCl. Fractions from which the PDE activity was disappeared by 10 μM rolipram (a PDE4-selective inhibitor) were recovered and used as the enzyme solution for the measurement of PDE4 inhibitory activity.
The enzyme activity was measured by the following method. […] To an alumina column (100 μl), was applied 50 μl of the supernatant, eluted with 80 μl of 0.005 N hydrochloric acid, and radioactivity of the eluate was measured.
PDE4 inhibitory activity ratio of the compound of the present invention of formula (I) was calculated by the following equation: PDE4 activity inhibitory ratio (%)=(1−radioactivity in the presence of the compound of the present invention of formula (1)/radioactivity in the absence of the compound of the present invention of formula (I))×100 […]

TNF-α production = TNF-α production inhibitory effect in LPS-stimulated heparinized blood; assay type: cell-based; conditions: blood of a healthy person, 6 hours incubation, human TNF-α ELISA
Protocol: A heparinized blood sample collected from a healthy person was dispensed in 180 μl/well into a 96-well plate. A solution of compound 1 (final concentration of DMSO: 0.1% or less) was dispensed at 10 μl and the plate was allowed to stand at 37° C. for 30 minutes in a 5% CO2 incubator. The reaction was initiated by adding 10 μl of LPS solution. After 6 hours of incubation in a CO2 incubator (5% CO2, humidified), the plate was shaken and then centrifuged at 300×g for 5 minutes to recover 50 μl of the supernatant (blood plasma). The amount of TNF-α in the supernatant was measured using a human TNF-α ELISA kit (DIACLONE Cat. No. 850.090.096) in accordance with the method attached thereto.

## N#CC1(c2ccc(OC(F)F)c(OC3CCCC3)c2)CCN(CC(=O)O)CC1 [compound 1, 2-(4-(3-cyclopentyloxy-4-difluoromethoxyphenyl)-4-cyanopiperidin-1-yl)acetic acid monohydrate]
PDE4
  IC50: 42 nM
TNF-α production
  inhibitory activity against TNF-α production: dose-dependent inhibitory activity
